Measurements taken from ChEMBL document CHEMBL5385961, “In vitro and in vivo evaluation of novel chromeno[2,3-d]pyrimidinones as therapeutic agents for triple negative breast cancer” (RSC Med Chem, 2024).
The source made the active and inactive calls. The rule behind the calls is not given here.

Tests used:
[1] = Toxicity in wild type C57BL/6J mouse assessed as effect on horizontal activity at 10 to 50 mg/kg, ip administered daily for 7 days and measured daily; assay type: organism-based; details: in vivo, 168 h, dose 10-50 mg/kg, time 7 day
Hs-578T [2] = test: Induction of cell cycle arrest in human Hs-578T cells assessed as reduction in G0/G1 cell population at IC50 measured after 24 hrs by RNase/PI staining based flow cytometry analysis; assay type: functional
MCF7 [3] = test: Cytotoxicity against human MCF7 cells assessed as cell viability at 10 uM incubated for 72 hrs by SRB assay relative to control; assay type: functional; details: read-out: Activity
Hs-578T [4] = test: Cytotoxicity against human Hs-578T cells assessed as reduction in cell proliferation at IC50 measured after 48 hrs by BrdU incorporation assay relative to control; assay type: functional; design: scale not given: the % may be the effect or the level left
Hs-578T [5] = test: Induction of apoptosis in human Hs-578T cells assessed as increase in early apoptotic cells at IC50 measured after 24 to 48 hrs by Annexin V-FITC/PI staining based flow cytometry analysis; assay type: functional, cell-based; details: time 24-48 hrs
[6] = Cytotoxicity against human MCF-10A cells assessed as inhibition of cell growth incubated for 72 hrs by SRB assay; assay type: toxicity, cell-based
[7] = Toxicity in wild type C57BL/6J mouse assessed as effect on eyelid reflexes at 10 to 50 mg/kg, ip administered daily for 7 days and measured daily; assay type: organism-based; details: in vivo, 168 h, dose 10-50 mg/kg, time 7 day
Hs-578T [8] = test: Induction of cell cycle arrest in human Hs-578T cells assessed as accumulation of cells at S phase at IC50 measured after 48 hrs by RNase/PI staining based flow cytometry analysis; assay type: functional
Hs-578T [9] = test: Induction of apoptosis in human Hs-578T cells assessed as increase in caspase-9 protein expression at IC50 measured after 24 to 48 hrs by Western blot analysis; assay type: functional, cell-based; details: time 24-48 hrs
Homo sapiens = organism: Homo sapiens; test: Selectivity index, ratio of IC50 for human MCF-10A cells to IC50 for human Hs-578T cells
[10] = Toxicity in wild type C57BL/6J mouse assessed as effect on bolus fecalis count at 10 to 50 mg/kg, ip administered daily for 7 days and measured daily; assay type: organism-based; details: in vivo, 168 h, dose 10-50 mg/kg, time 7 day
[11] = Toxicity in wild type C57BL/6J mouse assessed as effect on hydration at 10 to 50 mg/kg, ip administered daily for 7 days and measured daily; assay type: organism-based; details: in vivo, 168 h, dose 10-50 mg/kg, time 7 day
[12] = Toxicity in wild type C57BL/6J mouse assessed as effect on fur quality at 10 to 50 mg/kg, ip administered daily for 7 days and measured daily; assay type: organism-based; details: in vivo, 168 h, dose 10-50 mg/kg, time 7 day
[13] = Toxicity in wild type C57BL/6J mouse assessed as straub tail reaction at 10 to 50 mg/kg, ip administered daily for 7 days and measured daily; assay type: organism-based; details: in vivo, 168 h, dose 10-50 mg/kg, time 7 day
[14] = Toxicity in wild type C57BL/6J mouse assessed as effect on body position at 10 to 50 mg/kg, ip administered daily for 7 days and measured daily; assay type: organism-based; details: in vivo, 168 h, dose 10-50 mg/kg, time 7 day
[15] = Toxicity in wild type C57BL/6J mouse assessed as clasping at 10 to 50 mg/kg, ip administered daily for 7 days and measured daily; assay type: organism-based; details: in vivo, 168 h, dose 10-50 mg/kg, time 7 day
[16] = Toxicity in wild type C57BL/6J mouse assessed as effect on eyelid opening at 10 to 50 mg/kg, ip administered daily for 7 days and measured daily; assay type: organism-based; details: in vivo, 168 h, dose 10-50 mg/kg, time 7 day
[17] = Toxicity in wild type C57BL/6J mouse assessed as mean water intake per day at 10 to 50 mg/kg, ip administered daily for 7 days; assay type: organism-based; details: in vivo, 168 h, dose 10-50 mg/kg, time 7 day
Hs-578T [18] = test: Cytotoxicity against human Hs-578T cells assessed as reduction in cell proliferation at IC50 measured after 24 hrs by BrdU incorporation assay relative to control; assay type: functional; design: scale not given: the % may be the effect or the level left
MCF7 [19] = test: Cytotoxicity against human MCF7 cells assessed as cell viability at 30 uM incubated for 72 hrs by SRB assay relative to control; assay type: functional; details: read-out: Activity
[20] = Toxicity in wild type C57BL/6J mouse assessed as effect on spontaneous activity at 10 to 50 mg/kg, ip administered daily for 7 days and measured daily; assay type: organism-based; details: in vivo, 168 h, dose 10-50 mg/kg, time 7 day
Hs-578T [21] = test: Induction of cell cycle arrest in human Hs-578T cells assessed as accumulation of cells at S phase at IC50 measured after 24 hrs by RNase/PI staining based flow cytometry analysis; assay type: functional
Hs-578T [22] = test: Induction of apoptosis in human Hs-578T cells assessed as increase in BID protein expression at IC50 measured after 24 to 48 hrs by Western blot analysis; assay type: functional, cell-based; details: time 24-48 hrs
Hs-578T [23] = test: Induction of apoptosis in human Hs-578T cells assessed as increase in BAD protein expression at IC50 measured after 24 to 48 hrs by Western blot analysis; assay type: functional, cell-based; details: time 24-48 hrs
Hs-578T [24] = test: Induction of apoptosis in human Hs-578T cells assessed as increase in caspase-8 protein expression at IC50 measured after 48 hrs by Western blot analysis; assay type: functional, cell-based
[25] = Toxicity in wild type Caenorhabditis elegans N2 assessed as drug tolerance at 0.0001 to 50 uM; details: dose 0.0001-50 µM
Hs-578T [26] = test: Cytotoxicity against human Hs-578T cells assessed as reduction in cell proliferation at 0.5 times IC50 measured after 24 hrs by BrdU incorporation assay relative to control; assay type: functional; design: scale not given: the % may be the effect or the level left
[27] = Toxicity in wild type C57BL/6J mouse assessed as reduction in body weight at 10 to 50 mg/kg, ip administered daily for 7 days; assay type: organism-based; details: in vivo, 168 h, dose 10-50 mg/kg, time 7 day
Hs-578T [28] = test: Cytotoxicity against human Hs-578T cells assessed as reduction in cell viability at 10 uM incubated for 72 hrs by SRB assay relative to control; assay type: functional
[29] = Toxicity in wild type C57BL/6J mouse assessed as mean food intake at 50 mg/kg, ip administered daily for 7 days; assay type: organism-based; details: in vivo, 168 h, time 7 day
Hs-578T [30] = test: Antitumor activity against human Hs-578T cells implanted in chick eggs assessed as regression in tumors' perimeter at 2 times IC50 administered starting from day 13 and measured 17 days post embryo development by stereomicroscopic analysis relative to control; assay type: functional; details: time 5 day
Hs-578T [31] = test: Cytotoxicity against human Hs-578T cells assessed as reduction in cell proliferation at 0.5 times IC50 measured after 48 hrs by BrdU incorporation assay relative to control; assay type: functional; design: scale not given: the % may be the effect or the level left
Hs-578T [32] = test: Induction of apoptosis in human Hs-578T cells assessed as increase in cleaved PARP level at IC50 measured after 48 hrs by Western blot analysis; assay type: functional, cell-based
MDA-MB-231 = test: Cytotoxicity against human MDA-MB-231 cells assessed as cell viability at 30 uM incubated for 72 hrs by SRB assay relative to control; assay type: functional; details: read-out: Activity
Hs-578T [33] = test: Induction of cell cycle arrest in human Hs-578T cells assessed as increase in G2/M phase cell population at IC50 measured after 24 hrs by RNase/PI staining based flow cytometry analysis; assay type: functional
[34] = Toxicity in wild type C57BL/6J mouse assessed as piloerection at 10 to 50 mg/kg, ip administered daily for 7 days and measured daily; assay type: organism-based; details: in vivo, 168 h, dose 10-50 mg/kg, time 7 day
[35] = Toxicity in wild type C57BL/6J mouse assessed as effect on respiratory rate at 10 to 50 mg/kg, ip administered daily for 7 days and measured daily; assay type: organism-based; details: in vivo, 168 h, dose 10-50 mg/kg, time 7 day
[36] = Toxicity in wild type Caenorhabditis elegans N2 assessed as effect on food consumption at 0.0001 to 50 uM measured daily for 7 days by food clearance assay; details: 168 h, dose 0.0001-50 µM, time 7 day

In the case of `Brc1ccc2c(c1)-c1cc(-c3ccccc3)nc3c1C(N=CN3c1ccccc1)O2` (stereo not drawn), the Activity [1] is reported as “Non-Toxic”, the Activity (Hs-578T [2]) is reported as “Active” and the viability at 10 µM (MCF7 [3]) is reported as 58%. For the same compound, the Activity (Hs-578T [4]) was 35%, the Activity (Hs-578T [5]) was “Active” and the IC50 at 72 h [6] was 36.8 µM. The Activity [7] was “Non-Toxic”, the Activity (Hs-578T [8]) was “Active” and the Activity (Hs-578T [9]) was “Active”. For the same compound, the Ratio IC50 (Homo sapiens) was 3.26, the Activity [10] was “Non-Toxic” and the Activity [11] was “Non-Toxic”. For the same compound, the Activity [12] was “Non-Toxic”, the Activity [13] was “Non-Toxic” and the Activity [14] was “Non-Toxic”. The Activity [15] was “Non-Toxic”, the Activity [16] was “Non-Toxic” and the Activity [17] was ~ 4 ml. The Activity (Hs-578T [18]) was ~30%, the viability at 30 µM (MCF7 [19]) was 25.9% and the Activity [20] was “Non-Toxic”. The Activity (Hs-578T [21]) was “inactive”, the Activity (Hs-578T [22]) was “Active” and the Activity (Hs-578T [23]) was “Active”. For the same compound, the Activity (Hs-578T [24]) was “inactive”, the Activity [25] was “Non-Toxic” and the Activity (Hs-578T [26]) was ~8%. The Activity [27] was “Non-Toxic”, the Activity (Hs-578T [28]) was ~50% and the Activity [29] was 2.94 g/day. The Activity (Hs-578T [30]) was 12.4%, the Activity (Hs-578T [31]) was 10% and the Activity (Hs-578T [32]) was “Active”. For the same compound, the viability at 30 µM (MDA-MB-231) was 40.5%, the Activity (Hs-578T [33]) was “Active” and the Activity [34] was “Non-Toxic”. The Activity [35] was “Non-Toxic” and the Activity [36] was “Non-Toxic”.
